Blank lines part the entries; values can stand above or below the molecule they belong to.
Legend:
PDC-109 [1] = target: T1, PDC-109 (Bos taurus, UniProt P02784); assay: fluorescence titration, Scatchard analysis; assay type: binding; details: read-out: K a (converted)
T1 construct: native, purified from bovine seminal plasma (Sephadex G-50 gel filtration, DEAE Sephadex A-25); mature 109 residues, two FnII domains, O-glycosylated; polydisperse oligomers
T1 sequence (P02784 26-134): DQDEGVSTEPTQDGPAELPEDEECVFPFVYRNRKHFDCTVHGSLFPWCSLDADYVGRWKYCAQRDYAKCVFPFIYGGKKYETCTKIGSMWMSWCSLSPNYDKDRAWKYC

PDC-109 [2] = target: T1, PDC-109; assay: near-UV CD; assay type: binding; details: sonicated unilamellar vesicles, 0.1 mM lipid, pH 7.4, room temperature
PDC-109 [3] = target: T1, PDC-109; assay: isothermal titration calorimetry, sequential binding model; details: read-out: Ka × 10^3 (M^-1) (converted)
Text: isothermal titration calorimetry, sequential binding model on PDC-109

PDC-109 [4] = target: T1, PDC-109; assay: ANS fluorescence in presence of PrC; details: 10 mM PrC, 50 µM ANS, 0.05 mg/mL protein; lowers ANS binding

- Kd (PDC-109 [1]): 32.4 µM
Structure (SMILES): O=S(=O)(O)c1cccc2cccc(Nc3ccccc3)c12 [ANS, 8-anilinonaphthalene sulphonic acid]

Structure (SMILES): CCCCCCCCCCCCCC(=O)OC[C@H](COP(=O)(O)OCC(O)CO)OC(=O)CCCCCCCCCCCCC (some centres unmarked) [DMPG]
- near-UV CD (PDC-109 [2]): the protein tertiary structure is altered upon phospholipid binding

Structure (SMILES): CCCCCCCCCCCCCC(=O)OC[C@H](COP(=O)([O-])OCC[N+](C)(C)C)OC(=O)CCCCCCCCCCCCC [DMPC]
- near-UV CD (PDC-109 [2]): the protein tertiary structure is altered upon phospholipid binding

- Kd (PDC-109 [3]): 389 µM
Structure (SMILES): O=S(=O)(O)c1cccc2c(-c3ccc(Nc4ccccc4)c4c(S(=O)(=O)O)cccc34)ccc(Nc3ccccc3)c12 [bisANS, 4,4′-Dianilino-1,1′-binaphthyl-5,5′-disulphonic acid]

Structure (SMILES): C[N+](C)(C)CCOP(=O)([O-])O [PrC]
- ANS fluorescence in presence of PrC (PDC-109 [4]): PrC binding leads to a significant decrease in the surface hydrophobicity of the protein
